The record followed here is patent US20230174507A1, “IMIDAZOLE 3-OXIDE DERIVATIVE BASED ACSS2 INHIBITORS AND METHODS OF USE THEREOF” (METABOMED LTD., priority 2020, published 2023).

pIC50: −log10 of the molar value.

The target of one test is T1, human ACSS2 protein (Homo sapiens, UniProt Q9NR19).
T1 construct: purchased OriGene Technologies, Inc
As to the kind of experiment: ACSS2 cell-free activity assay (pyrophosphatase-coupled, Biomol green). To be noted: 10 nM human ACSS2, 90 minutes at 37 C, absorbance at 620 nm; read-out: ACSS2 Biochemical IC50. In outline: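 10 nM human ACSS2 incubated 90 min at 37 C with compound, 300 μM ATP, 10 μM CoA, 5 mM NaAc in pH 7.5 Hepes buffer with 0.5 U/ml pyrophosphatase. Released phosphate detected with Biomol Green at 620 nm; IC50 by non-linear regression constrained to 0% and 100%.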

The target of the next test is T2, human ACSS1 protein (Homo sapiens, UniProt Q9NUB1).
T2 construct: purchased MyBioSource
T2 sequence (Q9NUB1 38-689): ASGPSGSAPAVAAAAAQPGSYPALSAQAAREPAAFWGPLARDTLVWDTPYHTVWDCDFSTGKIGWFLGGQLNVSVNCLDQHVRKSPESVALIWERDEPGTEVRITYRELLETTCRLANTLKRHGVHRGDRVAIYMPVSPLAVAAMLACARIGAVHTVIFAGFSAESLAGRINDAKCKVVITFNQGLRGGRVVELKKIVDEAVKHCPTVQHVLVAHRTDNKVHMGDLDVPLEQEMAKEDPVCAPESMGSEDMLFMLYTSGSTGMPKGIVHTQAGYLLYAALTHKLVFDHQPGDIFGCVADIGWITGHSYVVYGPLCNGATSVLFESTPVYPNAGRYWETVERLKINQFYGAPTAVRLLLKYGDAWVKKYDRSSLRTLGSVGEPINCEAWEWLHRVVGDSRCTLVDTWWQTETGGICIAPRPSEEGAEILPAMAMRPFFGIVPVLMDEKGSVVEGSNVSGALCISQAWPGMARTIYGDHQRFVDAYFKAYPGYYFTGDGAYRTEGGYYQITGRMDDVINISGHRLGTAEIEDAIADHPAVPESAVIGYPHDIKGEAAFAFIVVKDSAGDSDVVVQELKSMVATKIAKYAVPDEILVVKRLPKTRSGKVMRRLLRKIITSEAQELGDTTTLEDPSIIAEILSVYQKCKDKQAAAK
Put plainly: ACSS1 cell-free activity assay (pyrophosphatase-coupled, Biomol green). In kind it is biochemical. To be noted: 5 nM human ACSS1, 30 minutes at room temperature, absorbance at 620 nm; for pIC50: read-out: ACSS1 Biochemical IC50. In outline: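 5 nM human ACSS1 incubated 30 min at RT with compound in pH 7.5 Hepes buffer with 15 μM CoA, 5 mM acetate, 300 μM ATP, 2 mM MgCl2 and pyrophosphatase. Released phosphate detected with Biomol Green (30 min), absorbance 620 nm. IC50 from constrained non-linear regression.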

Test [1] concerns the target T3, ACSS2 in MDA-MB-468 cells (Homo sapiens, UniProt Q9NR19).
T3 construct: endogenous in cells; host or cells: MDA-MB-468 cells, hypoxia (1% O2)
Put plainly: Cellular fatty-acid IC50: 13C-acetate incorporation into fatty acids (palmitate), LC-MS. To be noted: hypoxic conditions (1% O2), 75% charcoal stripped serum, 5 hours, 13C-acetate into palmitate, read-out: Cellular Fatty-acid IC50 High Serum MDA468. In kind it is cell-based. As for the experimental part: Cellular Fatty-Acid IC50 Determination:
The cellular activity of ACSS2 was measured in MDA-MB-468 cells under hypoxic conditions by tracing the incorporation of labelled carbons from ^13C-acetate into newly synthesized fatty acids. The assay was performed using 75% charcoal stripped serum (high serum conditions).
MDA-MB-468 cells were seeded in 12-well plates (0.35×10^6 cells per well) in plating medium (Dulbecco's Modified Eagle Medium containing 25 mM D-glucose, 1 mM sodium pyruvate, 10% v/v fetal bovine serum, and 2 mM glutamine) and incubated for 24 hours under hypoxic conditions (1% O2).
The next day, tracing medium containing DMEM (01-057-1A) containing 75% charcoal stripped serum (Biological industries 04-201-1A), 3.5 μg/mL Biotin (Sigma-Aldrich B4639), 1 mM Pyruvate, 5.5 mM Glucose, 0.65 mM Glutamine and 0.5 mM ^13C-Acetate (Sigma-Aldrich #282014) with serial dilutions of the compounds in the range of 0.000512-1000 nM were prepared. The plating medium was replaced with 1 mL tracing medium plus compounds and the cells were incubated for 5 hours under hypoxic conditions (1% O2). Plating medium in control wells (without cells or without compounds) was replaced with 1 mL tracing medium containing 0.01% v/v DMSO.
The level of ^13C-acetate incorporation into fatty acids (palmitate) was measured by LC-MS analysis and IC50 as described below:
Sample Preparation for LC-MS
• a) Cells were washed twice with cold phosphate buffered saline (PBS), scraped into 0.5 mL EDTA pH 8.0, and transferred into 1.1 mL V-shaped HPLC glass tubes. • b) The cell suspensions were centrifuged for 5 minutes at 400×g, 4° C. and the supernatants were removed. • c) Cell pellets were frozen at −80° C.
• d) Cell pellets were resuspended in 0.2 mL of 80% v/v ethanol in water containing 0.02 M NaOH in 1.1 ml glass (v-bottom) HPLC vials. • e) The vials were closed tight and incubated at 66° C. for 60 minutes. • f) Acetonitrile containing 2% v/v formic acid (150 μL) was added to each vial and the mixtures were transferred to Eppendorf tubes for centrifugation at 17 000×g for 20 minutes. • g) Supernatants were transferred to LC-MS vials.
The relative palmitate concentration was measured by LC-MS in reconstructed selected ion monitoring (RSIM) mode and negative ion mode. Samples were analyzed on a Phenomenex Kinetex 2.6 μm XB-C18 150×2.1 mm column at 45° C. (0.4 mL/minute flow rate) using: • a) A gradient from 15% A/85% C to 100% C for 0 to 2 minutes (A: water containing 5% v/v acetonitrile, 10 mM ammonium acetate, and 10 mM acetic acid; C: a mixture of 50% v/v acetonitrile and 50% v/v methanol). • b) Isocratic flow (100% C) for 2 to 5 minutes. • c) Equilibration in isocratic conditions (15% A/85% C) for 5 to 8 minutes.
Palmitate was eluted at approximately 3.4 minutes.
The percent inhibition was calculated relative to the sample without compound and after background deduction. IC50 values were calculated using non-linear regression curve fit analysis with 0% and 100% constraints (CDD Vault, Collaborative Drug Discovery, Inc. or GraphPad Prism).
The inhibitory activities of each compound against ACSS2 in MDA-MB-468 cells under high serum conditions, as determined by ^13C-acetate incorporation into fatty acids (palmitate), are presented in Table 2.

T3 sequence (Q9NR19 whole entry): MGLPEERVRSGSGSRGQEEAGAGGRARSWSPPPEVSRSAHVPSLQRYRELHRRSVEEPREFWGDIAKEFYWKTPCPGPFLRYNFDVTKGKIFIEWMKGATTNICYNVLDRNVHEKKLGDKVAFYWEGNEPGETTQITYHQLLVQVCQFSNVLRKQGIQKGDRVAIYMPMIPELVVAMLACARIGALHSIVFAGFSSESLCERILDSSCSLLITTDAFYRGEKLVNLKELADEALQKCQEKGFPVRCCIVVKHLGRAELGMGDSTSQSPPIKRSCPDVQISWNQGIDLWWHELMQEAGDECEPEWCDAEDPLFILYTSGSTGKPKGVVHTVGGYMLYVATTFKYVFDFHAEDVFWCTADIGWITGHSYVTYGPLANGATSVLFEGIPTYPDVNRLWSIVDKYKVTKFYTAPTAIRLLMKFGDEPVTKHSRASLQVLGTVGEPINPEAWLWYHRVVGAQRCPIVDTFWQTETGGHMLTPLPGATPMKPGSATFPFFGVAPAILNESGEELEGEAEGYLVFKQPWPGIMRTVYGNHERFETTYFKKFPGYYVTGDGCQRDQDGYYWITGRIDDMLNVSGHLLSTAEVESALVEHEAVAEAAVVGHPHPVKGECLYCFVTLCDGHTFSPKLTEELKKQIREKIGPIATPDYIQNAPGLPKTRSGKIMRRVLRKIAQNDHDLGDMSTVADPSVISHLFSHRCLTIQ
T1 sequence (Q9NR19 whole entry): as above

Usually pIC50 stands for −log10 of the IC50, conventionally taken in molar units. Take `Cc1cccc(C)c1-c1cc(-c2[nH]c(C)c(C(=O)Nc3cccc(C(F)(F)C4CC4)c3)[n+]2[O-])ccc1OC(F)F` [Compound 113, N-[3-[cyclopropyl(difluoro)methyl]phenyl]-2-[4-(difluoromethoxy)-3-(2,6-dimethylphenyl)phenyl]-5-methyl-3-oxido-1H-imidazol-3-ium-4-carboxamide]: the pIC50 is over 9.00 on human ACSS2 protein and 7.30 to 7.70 in test [1]. Besides, at human ACSS1 protein, the “ACSS1 Biochemical IC50 (nM)” value is recorded as “Inactive”.

In the case of `COc1ccc(-c2[nH]c(C)c(C(=O)Nc3cccc(C(F)(F)C4CC4)c3)[n+]2[O-])cc1-c1c(C)cncc1C` [Compound 105, 4-((3-(cyclopropyldifluoromethyl)phenyl)carbamoyl)-2-(3-(3,5-dimethylpyridin-4-yl)-4-methoxyphenyl)-5-methyl-1H-imidazole 3-oxide], the pIC50 at human ACSS2 protein is over 9.00; in test [1], over 7.70. The “ACSS1 Biochemical IC50 (nM)” value at human ACSS1 protein is reported as “Inactive”.

Turning to `CCC(F)(F)c1cccc(NC(=O)c2c(C)[nH]c(-c3cc(-c4c(C)cccc4C)c(OC)cc3N)[n+]2[O-])c1` [Compound 124], the pIC50 on human ACSS2 protein is over 9.00; in test [1], under 7.30. Moreover, at human ACSS1 protein, the “ACSS1 Biochemical IC50 (nM)” value is “Inactive”.

With `COc1ccc(-c2[nH]c(C)c(C(=O)Nc3cccc(-c4cn(C)nn4)c3)[n+]2[O-])cc1-c1c(C)cccc1C` [Compound 199, 2-(6-methoxy-2′,6′-dimethyl-[1,1′-biphenyl]-3-yl)-5-methyl-4-((3-(1-methyl-1H-1,2,3-triazol-4-yl)phenyl)carbamoyl)-1H-imidazole 3-oxide], the pIC50 was over 9.00 at human ACSS2 protein and 7.30 to 7.70 in test [1]. Further, the “ACSS1 Biochemical IC50 (nM)” value at human ACSS1 protein is listed as “Inactive”.

With `COc1ccc(-c2[nH]c(C)c(C(=O)Nc3cccc(-c4cnn(C)n4)c3)[n+]2[O-])cc1-c1c(C)cccc1C` [Compound 201, 2-(6-methoxy-2′,6′-dimethyl-[1,1′-biphenyl]-3-yl)-5-methyl-4-((3-(2-methyl-2H-1,2,3-triazol-4-yl)phenyl)carbamoyl)-1H-imidazole 3-oxide], the pIC50 on human ACSS2 protein is over 9.00; in test [1], over 7.70. Moreover, the “ACSS1 Biochemical IC50 (nM)” value on human ACSS1 protein is “Inactive”.

Regarding `CNC(=O)c1cccc(NC(=O)c2c(C)[nH]c(-c3ccnc(-c4c(C)cccc4C)c3)[n+]2[O-])c1` [Compound 178, 2-(2-(2,6-dimethylphenyl)pyridin-4-yl)-5-methyl-4-((3-(methylcarbamoyl)phenyl)carbamoyl)-1H-imidazole 3-oxide], the figures for the pIC50 (on human ACSS2 protein; on human ACSS1 protein; in test [1]) were over 9.00, under 7.52 and over 7.70, respectively.

On to `CCC(F)(F)c1cccc(NC(=O)c2c(C)[nH]c(-c3ccc(OC)c(-c4c(Cl)cccc4Cl)c3)[n+]2[O-])c1` [Compound 126, 2-(2′,6′-dichloro-6-methoxy-[1,1′-biphenyl]-3-yl)-4-((3-(1,1-difluoropropyl)phenyl)carbamoyl)-5-methyl-1H-imidazole 3-oxide], for which the results for the pIC50 (on human ACSS2 protein; in test [1]) were over 9.00 and 7.30 to 7.70, respectively. Besides, at human ACSS1 protein, the “ACSS1 Biochemical IC50 (nM)” value is “Inactive”.

In the case of `COc1cc(F)c(-c2[nH]c(C)c(C(=O)Nc3cccc(C(F)(F)C4CC4)c3)[n+]2[O-])nc1-c1c(C)cccc1C` [Compound 202, 4-((3-(cyclopropyldifluoromethyl)phenyl)carbamoyl)-2-(6-(2,6-dimethylphenyl)-3-fluoro-5-methoxypyridin-2-yl)-5-methyl-1H-imidazole 3-oxide], the results for the pIC50 (at human ACSS2 protein; in test [1]) were over 9.00 and under 7.30, respectively. The “ACSS1 Biochemical IC50 (nM)” value on human ACSS1 protein was “Inactive”.

Consider `Cc1cccc(C)c1-c1cc(-c2[nH]c(C)c(C(=O)Nc3cccc(C(F)(F)F)c3)[n+]2[O-])ccc1F` [Compound 203, 2-(6-fluoro-2′,6′-dimethyl-[1,1′-biphenyl]-3-yl)-5-methyl-4-((3-(trifluoromethyl)phenyl)carbamoyl)-1H-imidazole 3-oxide], for which the figures for the pIC50 (on human ACSS2 protein; in test [1]) were over 9.00 and under 7.30, respectively. Also, at human ACSS1 protein, the “ACSS1 Biochemical IC50 (nM)” value is recorded as “Inactive”.

As to `CNc1cc(-c2c(C)cccc2C)cc(-c2[nH]c(C)c(C(=O)Nc3cccc(C(F)(F)C4CC4)c3)[n+]2[O-])c1` [Compound 147, 4-((3-(cyclopropyldifluoromethyl)phenyl)carbamoyl)-2-(2′,6′-dimethyl-5-(methylamino)-[1,1′-biphenyl]-3-yl)-5-methyl-1H-imidazole 3-oxide], the values for the pIC50 (on human ACSS2 protein; in test [1]) were 7.52 to 9.00 and 7.30 to 7.70, respectively. Moreover, the “ACSS1 Biochemical IC50 (nM)” value at human ACSS1 protein is given as “Inactive”.

`CCC(F)(F)c1cccc(NC(=O)c2c(C)[nH]c(-c3cccc(-c4c(C)cccc4C)c3)[n+]2[O-])c1` [Compound 107, 4-((3-(1,1-difluoropropyl)phenyl)carbamoyl)-2-(2′,6′-dimethyl-[1,1′-biphenyl]-3-yl)-5-methyl-1H-imidazole 3-oxide]: the pIC50 at human ACSS2 protein was over 9.00; in test [1] it was over 7.70. In addition, at human ACSS1 protein, the “ACSS1 Biochemical IC50 (nM)” value is recorded as “Inactive”.

Turning to `CCC(F)(F)c1cccc(NC(=O)c2c(C)[nH]c(-c3cc(CCN4CCOCC4)c(OC)c(-c4c(C)cccc4C)c3)[n+]2[O-])c1` [Compound 192, 4-((3-(1,1-difluoropropyl)phenyl)carbamoyl)-2-(6-methoxy-2′,6′-dimethyl-5-(2-morpholinoethyl)-[1,1′-biphenyl]-3-yl)-5-methyl-1H-imidazole 3-oxide], the pIC50 was over 9.00 on human ACSS2 protein, under 7.52 at human ACSS1 protein and 7.30 to 7.70 in test [1].

Consider `CNC(=O)c1cccc(NC(=O)c2c(C)[nH]c(-c3ccc(OC)c(-c4c(F)cccc4F)c3)[n+]2[O-])c1` [Compound 184, 2-(2′,6′-difluoro-6-methoxy-[1,1′-biphenyl]-3-yl)-5-methyl-4-((3-(methylcarbamoyl)phenyl)carbamoyl)-1H-imidazole 3-oxide], for which the pIC50 at human ACSS2 protein is over 9.00; in test [1] it was over 7.70. For the same compound, on human ACSS1 protein, the “ACSS1 Biochemical IC50 (nM)” value is recorded as “Inactive”.
